Source: article PMC4674695, “Antagonism of Nav channels and α1-adrenergic receptors contributes to vascular smooth muscle effects of ranolazine” (Scientific Reports, 2015)

Test system: T1, tetrodotoxin-sensitive voltage-gated Nav channels
T1 construct: gene Scn1a
Experiment: whole-cell patch clamp, voltage ramp
Type: cell-based, Rattus norvegicus
Details: INa at maximal amplitude; veratridine 100 μM present, 2 mM NiCl2, 22–24 °C, pH 7.4; block voltage-dependent

## COc1ccccc1OCC(O)CN1CCN(CC(=O)Nc2c(C)cccc2C)CC1 (stereo not shown) [ranolazine]
  % inhibition at 20 μM: 40%
